Measured values reported in ChEMBL document CHEMBL1201862, “PubChem BioAssay data set” (2004).
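Following 48 hours of exposure in 96-well plates, responses at five concentrations were used to interpolate endpoints linearly. Here, GI50 denotes the concentration required for 50% inhibition of growth.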 Calls of active or inactive are those of the source. No stated cut-off is given here; in the data, active = GI50 up to about 1.1 µM and inactive = higher.

Experiments:
Assay in all cases: NCI tumour cell line growth inhibition, 48 h
[1] = system: HCT-15
[2] = system: MOLT-4
[3] = system: LOX IMVI
[4] = system: SNB-75
[5] = system: T47D
[6] = system: MDA-MB-435
[7] = system: SK-MEL-2
[8] = system: Malme-3M
[9] = system: HOP-92
[10] = system: COLO 205
[11] = system: RXF 393
[12] = system: SN12C
[13] = system: Hs-578T
[14] = system: CAKI-1
[15] = system: EKVX
[16] = system: SK-OV-3
[17] = system: SK-MEL-5
[18] = system: SF-268
[19] = system: MCF7
[20] = system: KM12

| Compound | GI50 [1] | GI50 [2] | GI50 [3] | GI50 [4] | GI50 [5] | GI50 [6] | GI50 [7] | GI50 [8] | GI50 [9] | GI50 [10] | GI50 [11] | GI50 [12] | GI50 [13] | GI50 [14] | GI50 [15] | GI50 [16] | GI50 [17] | GI50 [18] | GI50 [19] | GI50 [20] |
| --- | --- | --- | --- | --- | --- | --- | --- | --- | --- | --- | --- | --- | --- | --- | --- | --- | --- | --- | --- | --- |
| Cc1cn(C2CCN(CC3COC(C)(C)O3)O2)c(=O)[nH]c1=O (stereo not drawn) | > 100 µM | > 100 µM (inactive) | > 100 µM (inactive) | > 100 µM (inactive) | > 100 µM (inactive) | > 100 µM (inactive) | > 100 µM (inactive) | > 100 µM (inactive) | > 100 µM (inactive) | > 100 µM (inactive) | > 100 µM (inactive) | > 100 µM (inactive) | > 100 µM (inactive) | > 100 µM (inactive) | > 100 µM (inactive) | > 100 µM (inactive) | > 100 µM (inactive) | > 100 µM (inactive) | > 100 µM (inactive) | > 100 µM (inactive) |
| COc1ccc(C(=O)/C=C/c2ccc(O)c(O)c2F)c(OC)c1 | 0.34 µM | 1.12 µM (inactive) | 5.61 µM (inactive) | 7.52 µM (inactive) | 0.649 µM (active) | 3.58 µM (inactive) | 3.05 µM (inactive) | 7.64 µM (inactive) | 20 µM (inactive) | 11.5 µM (inactive) | 4.35 µM (inactive) | 3.89 µM (inactive) | 6.44 µM (inactive) | 3.24 µM (inactive) | 9.08 µM (inactive) | 9.27 µM (inactive) | 1.61 µM (inactive) | 2.99 µM (inactive) | 0.279 µM (active) | 4.99 µM (inactive) |
| O=C1N(c2ccccc2)N=C2c3ccncc3C3=NN(c4ccccc4)C(=O)C123 (stereo not drawn) | 13.2 µM | 0.504 µM (active) | 0.411 µM (active) | > 100 µM (inactive) | 2.26 µM (inactive) | 4.36 µM (inactive) | > 100 µM (inactive) | > 100 µM (inactive) | > 100 µM (inactive) | 2.12 µM (inactive) | > 100 µM (inactive) | > 100 µM (inactive) | > 100 µM (inactive) |  | > 100 µM (inactive) | > 100 µM (inactive) | 7.55 µM (inactive) |  | > 35.6 µM (inactive) | 0.556 µM (active) |
| CC(C)(C)OC(=O)NC(Cc1ccc(OCc2ccccc2)cn1)C(=O)N1CCCC1 (stereo not drawn) | 74.3 µM | 34.8 µM (inactive) | 72.1 µM (inactive) | 77.3 µM (inactive) | 27.4 µM (inactive) | 53.7 µM (inactive) | > 100 µM (inactive) | 30.3 µM (inactive) | > 100 µM (inactive) | 68.9 µM (inactive) | 69.3 µM (inactive) | 77.6 µM (inactive) | > 100 µM (inactive) | > 100 µM (inactive) | 66.8 µM (inactive) |  | 19.3 µM (inactive) | 89.1 µM (inactive) | 62.1 µM (inactive) | 65.5 µM (inactive) |
| CC(=O)CCCCC(=O)Nc1ccc(CC(NC(=O)OC(C)(C)C)C(=O)NCC(=O)OCc2ccccc2)cc1 (stereo not drawn) | 62.8 µM | 24.1 µM (inactive) | 15.1 µM (inactive) | 4.44 µM (inactive) | 19.9 µM (inactive) | 21.2 µM (inactive) |  | 19.3 µM (inactive) | 29.1 µM (inactive) | 18.5 µM (inactive) | 25.2 µM (inactive) | 24.7 µM (inactive) | 16.1 µM (inactive) | 15.7 µM (inactive) | 57.3 µM (inactive) | 23 µM (inactive) | 14.7 µM (inactive) | 22.4 µM (inactive) | 24.7 µM (inactive) | 29.4 µM (inactive) |
| Nc1cccc2nnccc12 | > 100 µM |  |  | > 100 µM (inactive) | > 100 µM (inactive) | > 100 µM (inactive) | > 100 µM (inactive) | > 100 µM (inactive) | > 100 µM (inactive) | > 100 µM (inactive) | > 100 µM (inactive) | > 100 µM (inactive) | > 100 µM (inactive) | > 100 µM (inactive) | > 100 µM (inactive) | > 100 µM (inactive) | > 100 µM (inactive) | > 100 µM (inactive) | > 100 µM (inactive) | > 100 µM (inactive) |
| CCOC(=O)[C@@H]1ON2OC(OC3CCCC3(c3ccccc3)c3ccccc3)C(OC(C)=O)[C@H]3OC(=O)[C@@H]1C32 (stereo partly drawn) | > 100 µM | 43.3 µM (inactive) | 22.1 µM (inactive) | > 100 µM (inactive) | 46.6 µM (inactive) | 51.1 µM (inactive) | 68.7 µM (inactive) |  | > 100 µM (inactive) | > 100 µM (inactive) | 27.4 µM (inactive) | > 100 µM (inactive) | > 100 µM (inactive) | > 100 µM (inactive) | 89.7 µM (inactive) | > 100 µM (inactive) | 42.9 µM (inactive) | > 100 µM (inactive) | 21.3 µM (inactive) | > 100 µM (inactive) |
